Laboratory results reported in ChEMBL document CHEMBL4402583, “Rational Substitution of ε-Lysine for α-Lysine Enhances the Cell and Membrane Selectivity of Pore-Forming Melittin” (J Med Chem, 2020).
Values after ≈ are worked out from the molar mass of the structure shown. Active and inactive are the calls of the source. No cut-off for these calls is given here.

Experiments:
Lipid bilayer [1] = test: Binding affinity to zwitterionic DOPC/cholesterol large unilamellar vesicles assessed as transformation of peptide secondary structure to alpha-helical conformation by CD spectropolarimetry
NHDF [2] = test: Cytotoxicity against HDF cells at 31.25 ug/ml incubated for 24 hrs by Alexa Fluor […] phalloidin-FITC/Hoescht dye staining based fluorescence microscopic analysis; format: cell-based; conditions: human
Pseudomonas aeruginosa = test: Antibacterial activity against Pseudomonas aeruginosa assessed as reduction in bacterial growth incubated for 24 hrs by broth microdilution method; format: functional
Candida albicans = test: Antifungal activity against Candida albicans assessed as reduction in fungal growth incubated for 24 hrs by broth microdilution method; format: functional
Lipid bilayer [3] = test: Induction of pore formation in negatively charged DOPE/DOPG large unilamellar vesicles assessed as calcein release at 0.39 to 50 uM measured for 60 mins by fluorescence based assay
[4] = Cytotoxicity against HDF cells assessed as minimum cytotoxic concentration incubated for 24 hrs by Alexa Fluor […] phalloidin-FITC/Hoescht dye staining based fluorescence microscopic analysis; format: cell-based; conditions: human, HDF cells (NHDF, human dermal fibroblasts)
Staphylococcus aureus [5] = test: Antibacterial activity against Staphylococcus aureus assessed as reduction in bacterial growth incubated for 24 hrs by broth microdilution method; format: functional
NHDF [6] = test: Cytotoxicity against HDF cells assessed as reduction in metabolic activity at 32 ug/ml incubated for 24 hrs by MTS assay; format: ADME, cell-based; conditions: human
Lipid bilayer [7] = test: Induction of pore formation in negatively charged DOPE/DOPG large unilamellar vesicles assessed as ratio of peptide to lipid molar ratio that induces 50% calcein leakage measured for 60 mins by calcein dequenching based fluorescence based assay
[8] = Cytotoxicity against HDF cells assessed as minimum cytotoxic concentration incubated for 24 hrs by MTS assay; format: cell-based; conditions: human, HDF cells (NHDF, human dermal fibroblasts)
Lipid bilayer [9] = test: Induction of pore formation in zwitterionic DOPC/cholesterol large unilamellar vesicles assessed as calcein release at 0.39 to 50 uM measured for 60 mins by fluorescence based assay
Acinetobacter baumannii [10] = test: Antibacterial activity against multidrug-resistant Acinetobacter baumannii assessed as reduction in bacterial growth incubated for 24 hrs by broth microdilution method; format: functional
Staphylococcus aureus [11] = test: Antibacterial activity against methicillin-resistance Staphylococcus aureus assessed as reduction in bacterial growth incubated for 24 hrs by broth microdilution method; format: functional
Enterococcus faecalis [12] = test: Antibacterial activity against vancomycin-resistant Enterococcus faecalis 1010 assessed as log10 reduction in bacterial viability at 2 to 4 times MIC incubated for 30 mins in MHB medium followed by reincubation on MH agar plate for 24 to 48 hrs by time kill kinetics analysis; format: functional
Escherichia coli [13] = test: Induction of pore formation in intact Escherichia coli 1004 cell membrane assessed as SG uptake at 2 times MIC by SG dye based fluorescence based assay; format: organism-based
Escherichia coli [14] = test: Antibacterial activity against Escherichia coli 1004 assessed as reduction in bacterial viability at 2 or 4 times MIC incubated up to 24 hrs in MHB medium followed by reincubation on MH agar plate for 24 to 48 hrs by time kill kinetics assay; format: functional, organism-based
Enterobacteriaceae = test: Antibacterial activity against Carbapenem-Resistant Enterobacteriaceae assessed as reduction in bacterial growth incubated for 24 hrs by broth microdilution method; format: functional
Klebsiella pneumoniae = test: Antibacterial activity against Klebsiella pneumoniae 1008 assessed as reduction in bacterial viability at 2 or 4 times MIC incubated up to 24 hrs in MHB medium followed by reincubation on MH agar plate for 24 to 48 hrs by time kill kinetics assay; format: functional, organism-based
[15] = Stability of the compound in rabbit tear fluid measured after 2 hrs by UPLC-MS analysis; format: ADME, Oryctolagus cuniculus
Acinetobacter baumannii [16] = test: Induction of pore formation in intact Acinetobacter baumannii 1001 cell membrane assessed as SG uptake at 2 times MIC by SG dye based fluorescence based assay; format: organism-based
Enterococcus faecalis [17] = test: Antibacterial activity against vancomycin-resistant Enterococcus faecalis 1002 assessed as log10 reduction in bacterial viability at 2 to 4 times MIC incubated for 30 mins in MHB medium followed by reincubation on MH agar plate for 24 to 48 hrs by time kill kinetics analysis; format: functional
NHDF [18] = test: Cytotoxicity against HDF cells assessed as reduction in metabolic activity at 16 ug/ml incubated for 24 hrs by MTS assay; format: ADME, cell-based; conditions: human
[19] = Stability of the compound in rabbit tear fluids assessed as parent compound remaining measured after 4 hrs by UPLC-MS analysis; format: ADME, Oryctolagus cuniculus; conditions: tear fluid, read-out: Stability
Staphylococcus aureus [20] = test: Antibacterial activity against methicillin-sensitive Staphylococcus aureus assessed as reduction in bacterial growth incubated for 24 hrs by broth microdilution method; format: functional
Enterococcus faecalis [21] = test: Induction of pore formation in intact vancomycin-resistant Enterococcus faecalis 1002 cell membrane assessed as SG uptake at 2 times MIC by SG dye based fluorescence based assay; format: organism-based
Enterococcus = test: Antibacterial activity against vancomycin-resistant Enterococcus assessed as reduction in bacterial growth incubated for 24 hrs by broth microdilution method; format: functional
Acinetobacter baumannii [22] = test: Antibacterial activity against Acinetobacter baumannii 1001 assessed as reduction in bacterial viability at 2 or 4 times MIC incubated up to 24 hrs in MHB medium followed by reincubation on MH agar plate for 24 to 48 hrs by time kill kinetics assay; format: functional, organism-based
Enterococcus faecalis [23] = test: Antibacterial activity against vancomycin-resistant Enterococcus faecalis ATCC 29212 assessed as log10 reduction in bacterial viability at 2 to 4 times MIC incubated for 30 mins in MHB medium followed by reincubation on MH agar plate for 24 to 48 hrs by time kill kinetics analysis; format: functional
Enterococcus faecalis [24] = test: Induction of pore formation in intact vancomycin-resistant Enterococcus faecalis ATCC 29212 cell membrane assessed as SG uptake at 2 times MIC by SG dye based fluorescence based assay; format: organism-based
Acinetobacter baumannii [25] = test: Resistance index, ratio of MIC for Acinetobacter baumannii ATCC 19606 measured after 4 serial passages by broth microdilution method to MIC for Acinetobacter baumannii ATCC 19606 incubated for 24 hrs by broth microdilution method; format: functional, organism-based; conditions: ATCC 19606 = CIP 70.34 = JCM 6841

CC[C@H](C)[C@H](NC(=O)CN)C(=O)NCC(=O)N[C@@H](C)C(=O)N[C@H](C(=O)N[C@@H](CC(C)C)C(=O)N[C@@H](CCCCN)C(=O)N[C@H](C(=O)N[C@@H](CC(C)C)C(=O)N[C@H](C(=O)N[C@H](C(=O)NCC(=O)N[C@@H](CC(C)C)C(=O)N1CCC[C@H]1C(=O)N[C@@H](C)C(=O)N[C@@H](CC(C)C)C(=O)N[C@H](C(=O)N[C@@H](CO)C(=O)N[C@@H](Cc1c[nH]c2ccccc12)C(=O)N[C@H](C(=O)N[C@@H](CCCCN)C(=O)N[C@@H](CCCNC(=N)N)C(=O)NCCC[C@@H](CN)C(=O)N[C@@H](CCCNC(=N)N)C(=O)N[C@@H](CCC(N)=O)C(=O)N[C@@H](CCC(N)=O)C(N)=O)[C@@H](C)CC)[C@@H](C)CC)[C@@H](C)O)[C@@H](C)O)C(C)C)C(C)C
Activity (Lipid bilayer [1]): inactive
Activity (NHDF [2]): Toxic
MIC (Pseudomonas aeruginosa): 4 to 16 µg/mL (≈ 1.41 to 5.62 µM)
MIC (Candida albicans): 4 to 8 µg/mL (≈ 1.41 to 2.81 µM)
Activity (Lipid bilayer [3]): Active
MCC at 24 h [4]: > 16 µg/mL
MIC (Staphylococcus aureus [5]): 4 to 8 µg/mL (≈ 1.41 to 2.81 µM)
Activity (NHDF [6]): Toxic
Ratio (Lipid bilayer [7]): 0.15
MCC at 24 h [8]: > 16 µg/mL
Activity (Lipid bilayer [9]): Active

CC[C@H](C)[C@H](NC(=O)CN)C(=O)NCC(=O)N[C@@H](C)C(=O)N[C@H](C(=O)N[C@@H](CC(C)C)C(=O)N[C@@H](CCCCN)C(=O)N[C@H](C(=O)N[C@@H](CC(C)C)C(=O)N[C@H](C(=O)N[C@H](C(=O)NCC(=O)N[C@@H](CC(C)C)C(=O)N1CCC[C@H]1C(=O)N[C@@H](C)C(=O)N[C@@H](CC(C)C)C(=O)N[C@H](C(=O)N[C@@H](CO)C(=O)N[C@@H](Cc1c[nH]c2ccccc12)C(=O)N[C@H](C(=O)N[C@@H](CCCCN)C(=O)N[C@@H](CCCNC(=N)N)C(=O)N[C@@H](CCCCN)C(=O)N[C@@H](CCCNC(=N)N)C(=O)N[C@@H](CCC(N)=O)C(=O)N[C@@H](CCC(N)=O)C(N)=O)[C@@H](C)CC)[C@@H](C)CC)[C@@H](C)O)[C@@H](C)O)C(C)C)C(C)C [MELITTIN]
Activity (Lipid bilayer [1]): Active
MIC (Acinetobacter baumannii [10]): 2 to 4 µg/mL (≈ 0.703 to 1.41 µM)
MIC50 (Acinetobacter baumannii [10]): 4 µg/mL (≈ 1.41 µM)
MIC50 (Staphylococcus aureus [11]): 4 µg/mL (≈ 1.41 µM)
MIC50 (Pseudomonas aeruginosa): 16 µg/mL (≈ 5.62 µM)
log(activity) (Enterococcus faecalis [12]): >5
Activity (Escherichia coli [13]): Active
Activity (Escherichia coli [14]): Active
MIC (Candida albicans): 4 to 8 µg/mL (≈ 1.41 to 2.81 µM)
MIC50 (Candida albicans): 4 µg/mL (≈ 1.41 µM)
MIC (Enterobacteriaceae): 8 to 32 µg/mL (≈ 2.81 to 11.2 µM)
MIC50 (Enterobacteriaceae): 8 µg/mL (≈ 2.81 µM)
Activity (Lipid bilayer [3]): Active
Activity (Klebsiella pneumoniae): Active
Stability [15]: Stable
Activity (Acinetobacter baumannii [16]): Active
log(activity) (Enterococcus faecalis [17]): >5
Activity (NHDF [18]): Toxic
MCC at 24 h [4]: > 8 µg/mL
remaining at 4 h [19]: 85.3%
MIC50 (Staphylococcus aureus [20]): 4 µg/mL (≈ 1.41 µM)
Activity (Enterococcus faecalis [21]): Active
Ratio (Lipid bilayer [7]): 0.04
MCC at 24 h [8]: > 8 µg/mL
MIC (Enterococcus): 0.5 to 8 µg/mL (≈ 0.176 to 2.81 µM)
MIC50 (Enterococcus): 4 µg/mL (≈ 1.41 µM)
Activity (Lipid bilayer [9]): Active
Activity (Acinetobacter baumannii [22]): Active
log(activity) (Enterococcus faecalis [23]): >5
Activity (Enterococcus faecalis [24]): Active

GENTAMICIN
Ratio (Acinetobacter baumannii [25]): 16
